US5989846A, “Assays to identify inducers of plant defense resistance” (Rutgers, The State University of New Jersey, priority 1995, dated 1999)

Columns and labels:
[1] = system: salicylic acid binding protein; assay: Effect of antioxidants on salicylic acid binding activity; parameters: species or system tobacco; conditions: 20 mM citrate, 5 mM MgCl, 10% glycerol pH 6.5, FIG. 5
Experimental: This was measured in buffers containing 20 mM citrate, 5 mM MgCl and 10% glycerol pH 6.5 in addition to the indicated concentrations of antioxidant.
A key element during the characterization and the purification process is a simple, inexpensive, sensitive and reliable method for determining the salicylic acid binding activity. For this purpose, spin-column exclusion chromatography was used to separate the bound [^14 C] salicylic acid (excluded) from the bulk free salicylic acid (included). Specifically, a 1.5 ml Eppendorf tube was punctured at the tip with a 20-gauge needle and a small amount of glass wool was added to cover the small hole. The tube was then filled with Bio-Gel P-6DG desalting gel (exclusion limit 6 KDa; purchased from Bio-Rad, Melville, N.Y.) which have been swollen in water. An alternative gel is Sephadex G-25 fine (from Pharmacia, Piscataway, N.J.). Excess liquid in the gel was removed and centrifuged for 5 minutes at full speed in a Dynamic centrifuge (Becton Dickinson). The process was then repeated several times until the gel filled the tube. After incubation of an aliquot of the extract or column fractions for 2 hr at 4° C. with 5 μM-20 μM [^14 C salicylic acid] (specifically radioactivity 55 Ci/mol; purchased from New England Nuclear), 150 μl of proteins binding sample was loaded onto the tube column, which was then rapidly centrifuged for 2 minutes at full speed and the solution of proteins and bound [^14 C-salicylic acid] that was excluded from the gel was collected into another tube that had been placed under the tube column during the centrifugation. One hundred microliters of this solution was then used to determine the amount of bound salicylic acid. […] For example, to determine the inhibitory effect of various salicylic acid analogues on salicylic acid binding activity, these individual analogues were included in the binding mixture containing both the protein and [^14 C] salicylic acid during the 2 hr incubation, and resulting binding activity was determined in comparison to the activity in the absence of these analogues. […]

ascorbate peroxidase = assay: Ascorbate peroxidase activity in tobacco leaf extracts; format: biochemical, Nicotiana tabacum cv. Xanthi nc; conditions: for % Inhibition of ascorbate peroxidase: 200 μM compound, corrected for quenching of auto oxidation
Experimental: […] Two grams of leaves from 6-8 week old tobacco plants (Nicotiana tabacum cv. Xanthi nc) grown at 22° C. in a 14 hr light cycle were homogenized under liquid nitrogen using a pestle and mortar.
To obtain ascorbate peroxidase-containing extracts, the soluble proteins were extracted by grinding the powder in 10 ml of 100 mM potassium phosphate, pH 7, containing […] ascorbate and 1% (weight/volume) polyvinylpyrrolidone, with a small amount of quartz sand. The homogenate was centrifuged at 14,000 g for 5 min. […] The pellet resulting from centrifugation (14,000 g, 15 min.) was resuspended in extraction buffer (100 mM potassium phosphate, pH7, containing 0.25 mM ascorbate and 1% (weight/volume) polyvinylpyrrolidone) and desalted on a PD-10 column (Pharmacia) equilibrated with 50 mM potassium phosphate, pH 7, containing 100 μM ascorbate. The extract was used immediately. […] The amount of protein per assay was 30-50 μg. Oxidation of ascorbate was followed by the decrease in the absorbance at 290 nm.
The values illustrated in FIG. 17 are the mean values for three replicated assays.

SABP/catalase = assay: Competition with 14C-labeled SA for SABP/catalase in crude leaf extracts; format: binding, tobacco; conditions: in vitro
PR1 genes = assay: PR-1 protein/gene expression in tobacco leaves (immunoblot); format: in vivo; conditions: for Induction of PR-1 protein synthesis / PR-1 gene induction (in words): N.t. cv. Xanthi nc
Experimental: The level of PR1 protein in tobacco leaves was analyzed by immunoblot analysis to establish biological activity. Three leaf discs (1 cm in diameter) were homogenized in 200 microliters of buffer containing 50 mM Tris (pH 8.0), 1 mM EDTA, 12 mM beta-mercaptoethanol and 10 mg/ml phenylmethylsulfonyl fluoride. The homogenate was centrifuged at full speed for 10 minutes in an Eppendorf microcentrifuge. The supernatant was fractionated with 15% polyacrylamide gel under denatured conditions. Protein blotting was done with a monoclonal antibody specific to PR1 protein and protein-antibody complexes were detected with an ECL kit from Amersham.
PR gene expression is both induced by SA and associated with the development of SAR. Therefore, it was of interest to test whether SA's mechanism of action for the induction of PR genes was via its inhibition of catalases which leads to enhanced H2 O2 levels. To address this question, H2 O2 abundance was artificially raised in tobacco leaves by treating with H2 O2 or compounds which either inhibit the catalase activity, like SA itself, or promote generation of H2 O2 in vivo. […]

TMV = format: in vivo, tobacco mosaic virus; conditions: for Enhanced resistance to TMV infection (reduction in lesion size): N.t. cv. Xanthi nc plants, compared to water-treated control plants
Experimental: The SA/SAG valves are given in micrograms per gram fresh weight of leaf tissue and represent averages of values from 3-6 treated plants at 6 days past injection. […] For determination of reduction in lesion size, longitudinal halves of 2 leaves on 3-6 plants were injection with chemicals, and six days later the entire leaf was infected with TMV. Twenty lesions were measured on each half of the leaf seven days post infection; the values given represent the average percent reduction in lesion diameter in the treated leaf half compared to the untreated half.

catalase = assay: In vivo catalase activity in tobacco suspension cells (oxygen electrode); format: cell-based
Experimental: This was determined by adding increasing concentrations of SA or INA to tobacco suspension cells (derived from cultivar Xanthi nc), as described below. The tobacco suspension cell culture was grown in the dark in MS medium at approximately 22° C. with agitation (160 rpm). Cells were maintained by diluting 10-fold every 5 days. For experimentation, 5 ml of suspension cells obtained 3 days after dilution was transferred to a 25 ml Erlenmeyer flask and agitated (100 rpm) at room temperature in the absence or presence of SA or INA which had been adjusted to pH 5.8. After 1 hr, 1 ml of the treated cell suspension was transferred to 7 ml of fresh MS medium containing SA or INA in a 10 ml beaker (density was approximately 6 mg cells per ml). Cells were maintained in suspension with a magnetic stir bar. In vivo catalase activity was determined by measuring, with an oxygen electrode, the rate of H2 O2 -dependent O2 production immediately after addition of H2 O2 to 10 mM final concentration.

guaiacol peroxidases = assay: Guaiacol peroxidase activity in tobacco leaf extracts; format: biochemical, Nicotiana tabacum cv. Xanthi nc
Experimental: Inhibition of peroxidase by SA and INA was determined by measuring the enzyme activities in extracts prepared from tobacco leaves in the absence or presence of 100 μM or 1000 μM SA or INA. Two grams of leaves from 6-8 week old tobacco plants (Nicotiana tabacum cv. Xanthi nc) grown at 22° C. in a 14 hr light cycle were homogenized under liquid nitrogen using a pestle and mortar.
Total guaiacol peroxidase activity was extracted with 100 mM potassium phosphate, pH 6.2, containing 1% (weight/volume) polyvinylpyrrolidone. In order to also extract the ionically bound cell wall isozymes, the extraction buffer was supplemented with 600 mM KCl. Extraction and centrifugation steps were as described for ascorbate peroxidase. After removal of cell debris and ammonium sulfate precipitation (85%), the extract was desalted against 50 mM potassium phosphate, pH 6, containing 25% glycerol. The extract could be stored at -20° C. without significant loss of peroxidase activity.
(§1) Guaiacol peroxidase activity was determined by the method of Chance and Maehly (Methods Enzymol. 2: 764 (1955)) using guaiacol as the substrate.
(§2) The formation of tetraguaiacol was monitored at 470 nm. The reaction mixture contained 0.25% guaiacol and 100 mM hydrogen peroxide in 20 mM potassium phosphate, pH 6.2. The amount of protein per 1 ml assay was […]. The reaction was measured for five minutes. The assay for horseradish peroxidase was identical, except that only 0.2-0.5 μg protein was used.

horseradish peroxidase = molecular target: T1, horseradish peroxidase (Armoracia rusticana, UniProt P00433); assay: Horseradish peroxidase activity; format: biochemical
T1 construct: purchased Sigma
T1 sequence (P00433 31-353): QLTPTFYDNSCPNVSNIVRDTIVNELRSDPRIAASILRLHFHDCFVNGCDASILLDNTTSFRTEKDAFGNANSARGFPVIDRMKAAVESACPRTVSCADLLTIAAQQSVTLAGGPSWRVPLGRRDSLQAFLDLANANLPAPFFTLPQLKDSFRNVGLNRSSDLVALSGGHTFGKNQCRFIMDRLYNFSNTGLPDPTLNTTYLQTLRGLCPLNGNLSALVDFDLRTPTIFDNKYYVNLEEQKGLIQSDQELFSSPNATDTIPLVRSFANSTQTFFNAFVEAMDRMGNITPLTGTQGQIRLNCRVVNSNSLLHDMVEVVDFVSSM
Experimental: Horseradish peroxidase (1 mg; obtained from Sigma) was dissolved in 1.5 ml 200 mM potassium phosphate, pH 6.2, containing 150 mM NaCl. Following a 15 minute incubation at room temperature, the enzyme solution was centrifuged (10,000 g, 10 minutes). After buffer exchange (PD-10, equilibrated with 25 mM potassium phosphate, pH 6.2), the protein concentration was adjusted to 0.5 mg/ml.
as §1, §2

H2 O2 = assay: Abundance of H2O2 in treated tobacco leaves; format: in vivo; conditions: FIG. 11
Text: The abundance of H2 O2 increased in SA- or 3AT-treated tobacco leaves by 50-60% over the control levels observed in water-treated leaves. […] Thus, elevated levels of H2 O2, and in turn, enhanced oxidative stress in vivo, were consistent with inhibition of catalase activity by SA observed in vitro.

| Compound | Effect on salicylic acid binding activity of SABP [1] | % Inhibition of ascorbate peroxidase (ascorbate peroxidase) | Inhibition of binding of 14C-labeled SA to SABP/catalase in vitro (in words) (SABP/catalase) | Induction of PR-1 protein synthesis / PR-1 gene induction (in words) (PR1 genes) | Enhanced resistance to TMV infection (reduction in lesion size) (TMV) | Inhibition of catalase activity in vivo (in words) (catalase) | further results |
| --- | --- | --- | --- | --- | --- | --- | --- |
| O[C@H](CS)[C@H](O)CS (racemic) [dithiothreitol] | affected |  |  |  |  |  |  |
| O=C(O)c1ccc(Cl)cc1O [4-Chlorosalicylic acid] |  | 58 ± 4% | very effectively inhibited | potent inducers of PR-1 protein synthesis | enhanced resistance to TMV infection | very effectively inhibited catalase activity |  |
| O=C(O)c1cc(Cl)nc(Cl)c1 [INA, 2,6-dichloroisonicotinic acid] |  |  |  |  |  |  | Activity (guaiacol peroxidases; POX, 100 μM compound): 2.8 ± 0.4 μmols of oxidized substrate mi; Inhibition (guaiacol peroxidases; POX, 100 μM compound): 0%; Activity (guaiacol peroxidases; POX, 1,000 μM compound): 2.7 ± 0.4 μmols of oxidized substrate mi; Inhibition (guaiacol peroxidases; POX, 1,000 μM compound): 3%; IC50 (ascorbate peroxidase; 750 μM ascorbate, 25 to 500 μM compound, FIG. 17, read-out: Concentration necessary for 50% inhibition (I50) of ascorbate peroxidase): 95 µM; Activity (ascorbate peroxidase; APX, 100 μM compound): 2.25 ± 0.4 μmols of oxidized substrate mi; Inhibition (ascorbate peroxidase; APX, 100 μM compound): 54%; Activity (ascorbate peroxidase; APX, 1,000 μM compound): 0.24 ± 0.2 μmols of oxidized substrate mi; Inhibition (ascorbate peroxidase; APX, 1,000 μM compound): 95%; Reduction in lesion size (%) (TMV; TMV infection six days after injection, lesions measured seven days post infection, treated vs untreated leaf half): 72%; Activity (horseradish peroxidase; HRP, 100 μM compound): 236 ± 8 μmols of oxidized substrate mi; inhibition at 100 µM (horseradish peroxidase; HRP, 100 μM compound): 1%; Activity (horseradish peroxidase; HRP, 1,000 μM compound): 242 ± 16 μmols of oxidized substrate mi; inhibition at 1000 µM (horseradish peroxidase; HRP, 1,000 μM compound): 0% |
| O=C(O)c1cc(Cl)cc(Cl)c1O [3,5-Dichlorosalicylic acid] |  | 59 ± 5% | very effectively inhibited | potent inducers of PR-1 protein synthesis | enhanced resistance to TMV infection | very effectively inhibited catalase activity |  |
| Nc1nc[nH]n1 [3AT, 3-amino-1,2,4-triazole] |  |  |  |  |  |  | Increase in abundance of H2O2 over water-treated leaves (H2 O2): 50-60%; Induction of PR1 gene expression (PR1 genes; tobacco leaves): induced the expression of PR-1 genes |
| O=C1O[C@H]([C@@H](O)CO)C(O)=C1O [ascorbic acid] | little inhibitory effect |  |  |  |  |  |  |
| O=C(O)c1cc(Cl)ccc1O [5-Chlorosalicylic acid] |  | 73 ± 5% | very effectively inhibited | potent inducers of PR-1 protein synthesis | enhanced resistance to TMV infection | very effectively inhibited catalase activity |  |
| OCCS [beta-mercaptoethanol] | affected |  |  |  |  |  |  |
